Data: patent US5254546A, “Fused aryl substituted imidazole angiotensin II receptor inhibitors” (E. I. Du Pont de Nemours and Company, priority 1992, dated 1993)
pIC50: −log10 of the molar value.

Assays:
Angiotensin II Receptor = test: AII receptor ligand-receptor binding assay (rat adrenal cortical microsomes, displacement of 3H-AII or 125I-AII); details: Table 7, 1 hour, room temperature
Procedure: The hormone angiotensin II (AII) produces numerous biological responses (e.g. vasoconstriction) through stimulation of its receptors on cell membranes. For the purpose of identifying compounds such as AII antagonists which are capable of interacting with the AII receptor, a ligand-receptor binding assay was utilized for the initial screen. The assay was carried out according to the method described by [Glossmann et al., J. Biol. Chem., 249, 825 (1974)], but with some modifications. The reaction mixture contained rat adrenal cortical microsomes (source of AII receptor) in Tris buffer and 2 nM of ^3 H-AII or 0.05 nM ^125 I-AII with or without potential AII antagonist. This mixture was incubated for 1 hour at room temperature and the reaction was subsequently terminated by rapid filtration and rinsing through glass micro-fibre filter. Receptor-bound ^3 H-AII or ^125 I-AII trapped in filter was quantitated by scintillation counting. The inhibitory concentration (IC50) of potential AII antagonist which gives 50% displacement of the total specifically bound ^3 H-AII or ^125 I-AII is a measure of the affinity of such compound for the AII receptor.

[1] = tested on: awake rats made hypertensive by ligation of the left renal artery; test: Antihypertensive effects in renal hypertensive rats (left renal artery ligation); type: in vivo, rat; details: for Antihypertensive Effects in Renal Hypertensive Rats, Intravenous Activity: 3 mg/kg; for Antihypertensive Effects in Renal Hypertensive Rats, Oral Activity: 30 mg/kg
Procedure: Blood pressure levels after treatment are compared to pretreatment levels to determine the antihypertensive effects of the compounds which were tested.

mammals and man = details: cited from earlier work
[2] = tested on: renal vasoconstrictor effect of indomethacin and meclofenamate in dogs; details: cited from earlier work
[3] = tested on: effects of AII on the blood pressure of pithed rats; details: cited from earlier work

Structure (SMILES)	pIC50 (Angiotensin II Receptor)	Antihypertensive Effects in Renal Hypertensive Rats, Intravenous Activity [1]	Antihypertensive Effects in Renal Hypertensive Rats, Oral Activity [1]	other results
CCCc1nc(-c2cc3ccccc3c3ccccc23)c(C=O)n1Cc1ccc(-c2ccccc2-c2nn[nH]n2)cc1 [Example 24]	6.77	+ (Significant decrease in blood pressure at 3.0 mg/kg or less)	NA (Not active at 3 mg/kg or 30 mg/kg dosage tested)	
CCCc1nc(-c2ccc(F)c3ccccc23)c(C=O)n1Cc1ccc(-c2ccccc2-c2nn[nH]n2)cc1 [Example 8]	6.77	NA (Not active at 3 mg/kg or 30 mg/kg dosage tested)		
CCCc1nc(-c2cc3ccccc3s2)c(C=O)n1Cc1ccc(-c2ccccc2-c2nn[nH]n2)cc1 [Example 7]	7.54	NA (Not active at 3 mg/kg or 30 mg/kg dosage tested)		
CCCc1nc(-c2ccc3c4c(cccc24)CC3)c(C=O)n1Cc1ccc(-c2ccccc2-c2nn[nH]n2)cc1 [Example 9]	6.31	NA (Not active at 3 mg/kg or 30 mg/kg dosage tested)		
CCCc1nc(-c2cccc3ccccc23)c(C=O)n1Cc1ccc(-c2ccccc2-c2nnn[nH]2)cc1 [Example 1, 4-(naphth-1-yl)-2-n-propyl-1-[(2'-(1H-tetrazol-5-yl)biphenyl-4-yl)methyl]imidazole-5-carboxaldehyde]	7.68	+ (Significant decrease in blood pressure at 3.0 mg/kg or less)	+ (Significant decrease in blood pressure at 30 mg/kg or less)	
CNCC(=O)N[C@@H](CCCN=C(N)N)C(=O)N[C@H](C(=O)N[C@@H](Cc1ccc(O)cc1)C(=O)N[C@H](C(=O)N[C@@H](Cc1cnc[nH]1)C(=O)N1CCC[C@H]1C(=O)N[C@@H](C)C(=O)O)C(C)C)C(C)C [Saralasin, [Sar^1, Ala^8] AII]				oral effectiveness (mammals and man; oral doses): oral doses being ineffective; duration of pharmacological effects (mammals and man; parenteral administration): relatively short-lasting; lowering of arterial pressure (mammals and man; when the elevated pressure is dependent on circulating AII): lower arterial pressure in mammals and man; pressor effects (mammals and man; when the pressure is not sustained by AII): generally elicits pressor effects when the pressure is not sustained by AII; effect on renal vasoconstriction by NSAID [2]: inhibit the renal vasoconstrictor effect of indomethacin and meclofenamate in dogs; antagonism of AII effects on blood pressure [3]: one of the most potent competitive antagonists of the actions of AII
C[C@H](CS)C(=O)N1CCC[C@H]1C(=O)O [captopril]				effect on renal vasoconstriction by NSAID [2]: reverse the renal vasoconstrictor effect of indomethacin in dogs with non-hypotensive hemorrhage

More lines, main results first:

pIC50 (Angiotensin II Receptor)	Structure (SMILES)	Antihypertensive Effects in Renal Hypertensive Rats, Intravenous Activity [1]	Antihypertensive Effects in Renal Hypertensive Rats, Oral Activity [1]	other results
6.25	CCCc1nc(/C=C/c2cccc3ccccc23)c(C=O)n1Cc1ccc(-c2ccccc2-c2nn[nH]n2)cc1 [Example 96]	+ (Significant decrease in blood pressure at 3.0 mg/kg or less)		
7.00	CCCc1nc(-c2ccc3ccccc3c2)c(C=O)n1Cc1ccc(-c2ccccc2-c2nn[nH]n2)cc1 [Example 10]	NA (Not active at 3 mg/kg or 30 mg/kg dosage tested)	NA (Not active at 3 mg/kg or 30 mg/kg dosage tested)	
6.80	CCCc1nc(-c2ccc3cc(OC)ccc3c2)c(C=O)n1Cc1ccc(-c2ccccc2-c2nn[nH]n2)cc1 [Example 11]	NA (Not active at 3 mg/kg or 30 mg/kg dosage tested)		
6.96	CCCc1nc(-c2cc3ccccc3o2)c(C=O)n1Cc1ccc(-c2ccccc2-c2nn[nH]n2)cc1 [Example 41]	+ (Significant decrease in blood pressure at 3.0 mg/kg or less)	+ (Significant decrease in blood pressure at 30 mg/kg or less)	
6.27	CCCc1nc(/C=C\c2ccc3ccccc3c2)c(C=O)n1Cc1ccc(-c2ccccc2-c2nn[nH]n2)cc1 [Example 97]	+ (Significant decrease in blood pressure at 3.0 mg/kg or less)		
7.89	CCCc1nc(/C=C\c2cccc3ccccc23)c(C=O)n1Cc1ccc(-c2ccccc2-c2nn[nH]n2)cc1 [Example 95]	+ (Significant decrease in blood pressure at 3.0 mg/kg or less)	+ (Significant decrease in blood pressure at 30 mg/kg or less)	
